According to US20260335279A1, “METHODS OF TREATING ISCHEMIA-REPERFUSION INJURIES” (University of Cincinnati, priority 2022, published 2026):

Tests used:
Format in all cases: in vivo, mouse (C57BL/6)
KLF5 = KLF5 protein expression (Western blot) in cardiac tissue, I/R mice; settings: 30 minutes of ischemia; ML264 25 mg/kg/12 h intraperitoneal
Protocol: The myocardial ischemia/reperfusion surgical protocol was applied as follows. Mice were anesthetized with 2% isoflurane inhalation until anesthesia was achieved. The animals' body temperature was maintained at 37 °C throughout the surgical procedure using a heating pad. A tracheal tube was placed via tracheal intubation and the respiration rate was set at 150 strokes/min with a tidal volume of 200 μL, using Minivent ventilator for mice (Model 845, Harvard Apparatus). A 1.2 cm incision was made over the left chest. After retraction of the pectoral major and minor muscles, the fourth intercostal space was exposed. […] The left anterior descending coronary artery (LAD) was then located, sutured, and ligated at a site 3-4 mm distal to the origin of the artery under the left atrium using a 6-0 silk suture. The heart was allowed to stabilize for 15 min and right after, ischemia was induced by tightening the suture against a small piece of polyethylene tube. […] The mouse was then monitored during the recovery period, which was generally completed within 3 to 5 minutes. […]
Isolated myocardial tissue/isolated primary murine cardiomyocytes were homogenized in radioimmunoprecipitation assay buffer (RIPA buffer) containing protease and phosphatase inhibitors (Thermo Fischer Scientific, Cat. No.: A32959). […] Relative densitometry was determined, and the β-actin protein was used as a loading control. […]

[1] = tested on: myocardial ischemia-reperfusion injury in mice; assay: Infarct size evaluation upon Evans Blue/TTC staining after myocardial I/R; settings: ML264 25 mg/kg/12 h intraperitoneal; 30 min ischemia, 24 h reperfusion; vs vehicle
Protocol: The myocardial ischemia/reperfusion surgical protocol was applied as follows. Mice were anesthetized with 2% isoflurane inhalation until anesthesia was achieved. The animals' body temperature was maintained at 37 °C throughout the surgical procedure using a heating pad. A tracheal tube was placed via tracheal intubation and the respiration rate was set at 150 strokes/min with a tidal volume of 200 μL, using Minivent ventilator for mice (Model 845, Harvard Apparatus). A 1.2 cm incision was made over the left chest. After retraction of the pectoral major and minor muscles, the fourth intercostal space was exposed. […] The left anterior descending coronary artery (LAD) was then located, sutured, and ligated at a site 3-4 mm distal to the origin of the artery under the left atrium using a 6-0 silk suture. The heart was allowed to stabilize for 15 min and right after, ischemia was induced by tightening the suture against a small piece of polyethylene tube. At the end of the 30-minute ischemia period, the ligature was released for the induction of reperfusion, and then the manual evacuation of air and closure of muscle and skin were performed. The mouse was then monitored during the recovery period, which was generally completed within 3 to 5 minutes. Sustain-released buprenorphine (BupSR, 0.5 mg/kg body weight) was provided by subcutaneous injection. Mice were then left to recover until the end of the reperfusion (2 hours, 12 hours, 24 hours, or 4 weeks). The sham group underwent the same surgical procedure except that the LAD was not occluded.
Double staining of the heart with Evans Blue dye and Triphenyl-Tetrazolium Chloride (TTC) solution was employed for infarct size measurements. Mice were anesthetized upon 3% isoflurane inhalation. The thorax was cut and opened, and hearts were gently excised. Then, the aorta was cannulated and perfused with 5 mL of normal saline. The suture was re-tightened and Evans Blue solution (2.5% in WFI) was slowly infused through the aorta, to differentiate the ischemic part of the myocardium from the non-occluded, normally perfused area. The hearts were sliced into 1-2 mm sections immediately following. The heart slices were incubated with TTC solution (1% in PBS, pH=7.4) at 37 °C for 20 min. In this way, the necrotic area is delimited as a white area, while the viable tissue is stained red. […] The overall size of each slice (All/A), the area-at-risk (R), and the infarct area (I) were determined in a blinded manner for each slice using ImageJ software, and the percentages of Area at Risk (R/A) % and I/R % were calculated. […]
Administration of these two compounds was performed 5 minutes before the reopening of the coronary artery and infarct size was assessed upon 30 minutes of ischemia followed by 24 hours of reperfusion therapy.

[2] = tested on: reactive oxygen species in myocardium; assay: DHE staining of myocardium (superoxide detection, oxidative stress) after I/R; settings: 30 min ischemia, 2 h reperfusion; ML264 5 min prior to reopening of coronary artery; vs I/R vehicle
Protocol: The myocardial ischemia/reperfusion surgical protocol was applied as follows. Mice were anesthetized with 2% isoflurane inhalation until anesthesia was achieved. The animals' body temperature was maintained at 37 °C throughout the surgical procedure using a heating pad. A tracheal tube was placed via tracheal intubation and the respiration rate was set at 150 strokes/min with a tidal volume of 200 μL, using Minivent ventilator for mice (Model 845, Harvard Apparatus). A 1.2 cm incision was made over the left chest. After retraction of the pectoral major and minor muscles, the fourth intercostal space was exposed. […] The left anterior descending coronary artery (LAD) was then located, sutured, and ligated at a site 3-4 mm distal to the origin of the artery under the left atrium using a 6-0 silk suture. The heart was allowed to stabilize for 15 min and right after, ischemia was induced by tightening the suture against a small piece of polyethylene tube. At the end of the 30-minute ischemia period, the ligature was released for the induction of reperfusion, and then the manual evacuation of air and closure of muscle and skin were performed. The mouse was then monitored during the recovery period, which was generally completed within 3 to 5 minutes. […]
Live myocardium was isolated from mice at the time of euthanasia and stained with 20 μM dihydroethidium (DHE) for 30 min at room temperature. […] Individual nuclei were measured within each visual field using ImageJ software, and visual fields were averaged to measure mean fluorescence intensity for each mouse.
In order to unravel the mechanisms of KLF5-mediated cardiotoxicity, oxidative stress levels were evaluated at early reperfusion. […] Given the fact that inflammation and diapedesis of immune cells are important hallmarks of the post-ischemia-reperfusion response, the mRNA levels of IL-1α, IL-1β, IL-6, IL-10, and TNFα in the ischemic myocardium upon ML264 treatment were evaluated at 2 hours of reperfusion (FIGS. 51-5M) and 24 hours of reperfusion (FIGS. 5N-5Q). […]

TNFα = TNFα mRNA in ischemic myocardium; settings: evaluated at 2 h and 24 h of reperfusion, vs vehicle
Protocol: The myocardial ischemia/reperfusion surgical protocol was applied as follows. Mice were anesthetized with 2% isoflurane inhalation until anesthesia was achieved. The animals' body temperature was maintained at 37 °C throughout the surgical procedure using a heating pad. A tracheal tube was placed via tracheal intubation and the respiration rate was set at 150 strokes/min with a tidal volume of 200 μL, using Minivent ventilator for mice (Model 845, Harvard Apparatus). A 1.2 cm incision was made over the left chest. After retraction of the pectoral major and minor muscles, the fourth intercostal space was exposed. […] The mouse was then monitored during the recovery period, which was generally completed within 3 to 5 minutes. […]
Total RNA was purified from heart tissue using the TRIzol reagent according to the instructions of the manufacturer (ThermoFischer Scientific, Cat. No.: 15596018). cDNA synthesis was performed using the Applied Biosystems High Capacity cDNA Reverse Transcription Kit (ThermoFischer Scientific, Cat. No.: 4368814) from 500 ng RNA, which had been treated with DNAase I (ThermoFischer Scientific, Cat. No.: 18068015). Quantitative real-time PCR was performed with the SYBR Select Master Mix (ThermoFischer Scientific, Cat. No.: 4472903) using the manufacturer's recommendations. […]

Compound: CN(C(=O)CNC(=O)/C=C/c1cccc(Cl)c1)C1CCS(=O)(=O)CC1 [ML264]
- KLF5 protein expression in cardiac tissue (KLF5): suppression was confirmed
- infarct size [1]: significant reduction
- reactive oxygen species formation (DHE staining) [2]: significant reduction
- TNFα mRNA levels (TNFα): Significant suppression
